Counter-ions that a name gives are not always drawn.

The text below walks through data of patent publication US6680067B2 (priority 2001, dated 2004).

Series [1] deals with Sprague-Dawley rats. Put plainly: rat cold ethanol tail-flick test (analgesic effect). In kind it is in vivo. Conditions: intramuscular, 25 μM/kg, FIG. 5. Background: In hot-plate and tail-flick tests a longer latency is read as antinociception.
A short description of series [2]: pharmacokinetics of nalbuphine in rat plasma after intramuscular injection. The following applies: for k01: hydrochloride. The procedure: Each group consisted of 6 rats and each rat was injected once intramuscularly on the rear leg.
Series [3] is described as follows: pharmacokinetics of nalbuphine in beagle plasma after intramuscular injection. Conditions: for k01: hydrochloride.
The conditions of series [4]: Shafer et al. 1991; cited from earlier work.
The mark [5] stands for this setting: male, Sprague-Dawley, rat, plasma, im, 24 mg/kg.
Where [6] appears, read: beagle, dog, plasma, im, 5 mg/kg.
Setting [7] is: beagles, i.m., dose 5 mg/kg, n = 5, mean ± S.E.

With `Oc1ccc2c3c1O[C@H]1[C@@H](O)CC[C@@]4(O)[C@@H](C2)N(CC2CCC2)CC[C@]314` [Nalbuphine-HCl, nalbuphine hydrochloride], the “10% analgesic effect (duration)” value in series [1] was found to be 2.7 h. The “50% analgesic effect (duration)” value in series [1] was 1.2 h. Besides, in series [2] (Sprague-Dawley rats, i.m., 24 mg/kg (FIG. 7), means ± S.E.), the “β or k10” value stood at 0.43 ± 0.21 h⁻¹. The k01 turned out to be 12.1 ± 14.1 h⁻¹ in series [2] (Sprague-Dawley rats, i.m., 24 mg/kg (FIG. 7), means ± S.E., 24 mg/kg); 12.1 ± 14.1 h⁻¹ in series [2] (Sprague-Dawley rats, i.m., 24 mg/kg (FIG. 7), means ± S.E., listed as nalbuphine hydrochloride, 24 mg/kg); 82.5 ± 43.9 h⁻¹ in series [3] (beagles, i.m., dose 5 mg/kg, n = 5, mean ± S.E., listed as Nal-HCl); 82.5 ± 43.9 h⁻¹ in series [3] (beagles, i.m., dose 5 mg/kg, n = 5, mean ± S.E., listed as Nalbuphine HCl); 82.5 h⁻¹ in series [3] (beagles, i.m., dose 5 mg/kg, n = 5, mean ± S.E., listed as nalbuphine hydrochloride). The AUC (commonly the area under the concentration-time curve, a measure of exposure) in series [2] (setting [5]) stood at 8040 ± 2880 ng·h/mL; in series [3] (setting [6]) it was 1870 ± 203 ng·h/mL. Besides, the figures for the CL/F in series [2] (setting [5]) and in series [3] (setting [6]) were 58.3 mL/min/kg and 46.7 mL/min/kg, respectively. For the same compound, the Cmax (in general, the peak of the concentration-time curve) in series [2] (setting [5]) amounted to 2230 ± 669 ng/mL; in series [3] (setting [6]), 2460 ± 755 ng/mL. Moreover, the MRT (usually a mean duration of stay, worked out from the concentration-time curve) in series [2] (setting [5]) was found to be 180 ± 72 min; in series [3] (setting [6]), 132 ± 30 min. The Tmax (usually the time from dosing to the highest level) in series [2] (setting [5]) came to 27 ± 14.4 min; in series [3] (setting [6]), 5.4 ± 2.4 min. For the same compound, the half-life (usually the time needed for the level to fall by half in the phase considered) in series [2] (male, Sprague-Dawley, rat, plasma, im, 24 mg/kg, t1/2, k01, Sprague-Dawley rats, 24 mg/kg (FIG. 7), means ± S.E.) is 8.4 ± 9 min; in series [2] (male, Sprague-Dawley, rat, plasma, im, 24 mg/kg, t1/2, β (elimination half-life), Sprague-Dawley rats, 24 mg/kg (FIG. 7), means ± S.E.), 114 ± 48 min; in series [3] (beagle, dog, plasma, im, 5 mg/kg, t1/2, k01, beagles, n = 5, mean ± S.E.) it was 7.2 ± 4.2 min; in series [3] (beagle, dog, plasma, im, 5 mg/kg, t1/2, α, beagles, n = 5, mean ± S.E.) it was 7.8 ± 6.6 min; in series [3] (beagle, dog, plasma, im, 5 mg/kg, t1/2, β (elimination half-life), beagles, n = 5, mean ± S.E.), 168 ± 54 min. Besides, the α in series [3] (setting [7]) is 67.9 ± 29.3 h⁻¹. This compound also registered a β in series [3] (setting [7]) of 0.42 ± 0.15 h⁻¹.
Regarding `Oc1ccc2c(c1)[C@@]13CCCC[C@@]1(O)[C@@H](C2)N(CC1CCC1)CC3` [butorphanol], in series [4], the “dose needed to elicit the same analgesic effect” value is 2 mg.
`CN1CC[C@]23c4c5ccc(O)c4O[C@H]2[C@@H](O)C=C[C@H]3[C@H]1C5` [morphine]: in series [4], the “dose needed to elicit the same analgesic effect” value is given as 10 mg.
